Experiments:
4T1-Luc cells = experiment: MTT cytotoxicity assay; type: cell-based, murine; settings: up to the highest concentration tested (100 μM); 2 hours
Experimental: MTT Cytotoxicity Assay. 48-well plates were seeded with 100,000 cells per well ([…]) and incubated at 37° C. with 5% CO2 for 16 hours (˜75% confluent). Media was removed and fresh RPMI 1640 media with 10% FBS containing 100, 50 25, 12.5, 6.25, 3.13, 1.56, or 0 μM AlDeLuc (1% DMSO final v/v) was added. The media was removed after two hours and replaced with 500 μL of 18:1 mixture of FBS-free RPMI 1640 and (3-(4,5-dimethylthiazol-2-yl)-2,5-diphenyltetrazolium bromide (MT, 5 mg/mL stock in PBS). The cells were incubated for one hour at the same conditions before the media was removed. DMSO (500 μL/well) was added, and the absorbance was read at 555 nm on a microplate reader. Viability was calculated by the absorbance relative to the vehicle control. Values are reported as the mean±standard deviation (n=3).

rat liver microsomes = experiment: Stability of AlDeLuc to rat liver microsomes; type: in vitro ADME; settings: 2 μM; RLM 0.25 to 5.0 ng/mL; NADPH; 37° C.
Experimental: Investigating the Stability of AlDeLuc to Rat Liver Microsomes. The stability of AlDeLuc (2 μM) in rat liver microsomes (RLM) was measured in a black 96-well plate and was monitored using the IVIS imaging system. To Eppendorf tubes containing potassium phosphate buffer (0.1 M, pH 7.4), RLM (0.25 ng/mL or 5 ng/mL), and AlDeLuc (2 μM) was added NADPH (50 μM in potassium phosphate buffer) and incubated at 37° C. for 15 minutes. In parallel, Eppendorf tubes with potassium phosphate buffer (0.1 M, pH 7.4), ALDH1A1 (0.4 μM), NAD^+ (1 mM), and AlDeLuc (2 μM, activated with acid) were warmed at 37° C. for 15 minutes. The solutions were transported to the laboratory housing the IVIS imaging system (˜10 minutes), transferred to a 96-well plate, and immediately administered ATP-MgSO4 (45 μL, prepared by mixing 17.78 mM ATP-Mg and 35.56 mM MgSO4 in a 1:1 ratio in PBS buffer) and luciferase (5 μL, 1 mg/mL in PBS containing 10% glycerol) to initiate bioluminescence production. Light was collected immediately after mixing, and the total luminescent counts were collected in each condition. The total volume of each well was 200 μL with 0.2% DMSO. All data reported as the mean±standard deviation (n=4).

[1] = Stability in PBS or serum-containing media; type: physicochemical
BALB/c mice = experiment: Evaluation of systemic toxicity of AlDeLuc, H&E staining of organs; type: in vivo; settings: 0.55 mg/kg systemic (retro-orbital); four hours
Experimental: Evaluation of Systemic Toxicity of AlDeLuc in BALB c mice. BALB/c mice were anesthetized and administered AlDeLuc or vehicle via retro-orbital injection (0.55 mg/kg, 1:19 v/v DMSO:PBS). After four hours, mice were euthanized, and their organs were harvested, fixed in formalin, and submitted to Veterinary Medicine for Hematoxylin and eosin staining.

[2] = system: 4T1 murine mammary carcinoma cells; experiment: AlDeLuc activation in 4T1 cells, lysate bioluminescence; type: cell-based; settings: 4T1 cell lysates; 100 μM, 60 minutes
Experimental: Validation of ALDH-Mediated Activation of AlDeLuc in Murine Breast Cancer Cells. 4T1 cells were cultured in T75 culture flasks. After two days, cells had become ˜90% confluent. An aliquot of RPMI 1640 media (1 mL) was removed from each flask and replaced with either DEAB ([…], 0.5% DMSO) or vehicle (0.5% DMSO). After incubation for one hour, the solutions were aspirated, washed with PBS, and resuspended in fresh RPMI 1640 media (9 mL). Each flask was then incubated with the AlDeLuc (100 μM) and DEAB (500 μM) or AlDeLuc (100 μM) and vehicle (DMSO), each with a final concentration of 1% DMSO. After 60 minutes, this solution was aspirated, washed with fresh PBS, and detached from the culture flasks. The cells were then transferred to a 15 mL centrifuge tube and pelleted at 1000 rpm for 5 minutes at room temp. The cells were resuspended in PBS along with 10% protease inhibitor solution (1 protease inhibitor mini tablet per 10 mL of PBS, Pierce, Thermo Fisher Scientific) and sonicated on ice for 2.5 minutes (pulse 01, 01, 40%). The cell debris was removed via centrifugation and the supernatant was plated ([…]) into a 96-well plate (n=4 for each condition). […] ROIs were drawn around each well and the signal intensity was quantified using the Living Image Analysis software.

ALDH1A1 activity = experiment: High-fat diet inflammatory model, orthotopic 4T1-Luc tumors, AlDeLuc imaging after L-NMMA; type: in vivo, BALB/c mice; settings: control group (water gavage), AlDeLuc 0.55 mg/kg, 40 min
Experimental: Finally, to examine how NO influences ALDH1A1 activity in vivo we placed BALB/c mice (female, 5-7 weeks old) on a high-fat diet for 40 weeks to induce an inflammatory response through elevated NO production. This period consists of a ˜20-week priming period prior to inoculation of the animals with 4T1-Luc cells at the mammary fat pad. At this point, the mice were randomized into two groups. The treatment group was administered L-NMMA (50 mg/kg), whereas the control group received water via oral gavage for 20 days. The day after the final treatment, mice from both conditions were treated systemically with AlDeLuc, and the bioluminescence was monitored (FIG. 5e). […] At the completion of the diet study, animals were sacrificed, and their tumors were excised for further immunohistochemical analysis.
Generation of an Orthotopic 4T1-Luc Breast Cancer Model for Diet Studies. Female BALB/c mice (˜6 weeks old) were inoculated with 4T1-Luc cells (50 μL of 1×10^5 cells in 1:1 v/v serum-free RPMI 1640 media and Matrigel) via subcutaneous injections into the mammary fat pad. Tumor volumes were measured using the caliper method every three days. Body weight was measured daily over the course of the experiment.

[3] = system: mesenchymal stem cells (MSCs); experiment: AlDeLuc in mesenchymal stem cells, lysed and treated with luciferase; type: cell-based; settings: 20 μM, one hour, ~2.5×10^5 MSCs, lysed
Experimental: Testing commenced by incubating MSCs with AlDeLuc (20 μM). After one hour, the cells were lysed, treated with luciferase, and imaged. […] Moreover, we wanted to allow for any oxidized N,N-diethyl luciferin substrate to accumulate for the highest possible signal.

CCN(CC)c1ccc2nc(C3=N[C@@H](C(OC)OC)CS3)sc2c1 [AlDeLuc, (S)-2-(4-(dimethoxymethyl)-4,5-dihydrothiazol-2-yl)-N,N-diethylbenzo[d]thiazol-6-amine]
cell viability (MTT) (4T1-Luc cells): nontoxic | bioluminescence after incubation with rat liver microsomes (rat liver microsomes): negligible bioluminescence | hydrolysis ([1]; PBS): does not hydrolyze | hydrolysis ([1]; serum-containing media): does not hydrolyze | H&E stains of spleen, kidneys, lungs, heart, liver compared to vehicle animals (BALB/c mice): indistinguishable | increase in bioluminescence compared to blank controls [2]: 42 fold | total luminescent counts (ALDH1A1 activity): 1.7±0.8×10^4 | bioluminescence of treated cells [3]: indistinguishable from blank controls

From US20250282770A1, “BIOLUMINESCENT PROBES TO TRACK STEM CELLS IN VIVO” (THE BOARD OF TRUSTEES OF THE UNIVERSITY OF ILLINOIS, priority 2024, published 2025)
